# Like-named read-outs stand apart in the source and are kept apart here.
# B1: Purified VHPO (SEQ ID NO: 3): VHPO of Curvularia spicifera US-188; purified from recombinant P. pastoris (protein)
# chain: MGSVTPIPIPRIDEPEEYNTNYILFWNHVGLELNRITHTVGGPLTGPPLSARALGMLHLAIHDAYFSICPPSDFTTFLSPDAENVAYRLPSLNGADDARQAVAGAALKMLSLLYMKPVEQPNPNPGANISDNAYAQLGLVLDRSVLKAPGGVDQESASFMFGEAVADVFFALLNDPRGASQEGYHPTLGRYKFDDEPTHPVVLIPVDPNNPNGPKKPFRQYHAPFYGKTTKRFATQSEHFLADPPGLRSNADETAEYDDSIRVAIAMGGAQGLNSTKRSPWQTAQGLYWAYDGSNLIGTPPRFYNQIVRRIAVTYKKEEDLANSEVNNADFARLFALVNVACTDAGIFSWKEKWEFEFWRPLSGVRDDGRPDHGDPFWLTLGAPATNTNDIPFKPPFPAYPSGHATFGGAVFQMVRRYYNGRVGTWKDDEPDNIAIDMMISEELNGLNRDLRQPYDPTAPIEDQPGIVRTRIVRHFDSAWEMMFENAISRIFLGVHWRFDAAAARDILIPTTTKDVYAVDNNGATVFQNVEDVRYSTKGTREGREGLFPIGGVPLGIEIADEIFNNGLRPTPPELQPMPQETPVQKPVEGMWEEEQAPIVNEAP
# B2: Purified VHPO (SEQ ID NO: 5): VHPO of Curvularia pseudobrachyspora US-215; purified from recombinant P. pastoris (protein)
# chain: MGSVIPIPLPKIDEPEEYNTNYVLFWNNVGLELNRVTHTVGGPLTGPPLSARALGMLHLAIHDAYFSIYPPTDFTTFLSPDAENAAYRLPSLNGANDARQAVAGAALKMLSSLYMKPDSSSGGSISDNAYAQLALVIDRSVLKAPGGVDRESASFVFGEAVADVFFALLNDPRGASQEGYHPTPGRYKFDDEPTHPVVLVPVDPNNPNGPKKPFRQYHAPFYGKTTKRFATQTEHFLADPPGLRSNADETAEYDDSIRVAVAMGGAQGLNSTKRSPWQTAQGLFWAYDGSNLVGTPPRFYNQIVRRIAVTYKKEEDLANSEVNNADFARLFALVDVACTDAGIFSWKEKWEYEFWRPLSGVRDDGRPDHGDPFWLTLGAPATNTNDIPFKPPFPAYPSGHATFGGAVFQMVRRYYNGRVGTWKDDEPDNIAIDMVISEELNGLNRDLRQPYDPTAPIEDQPGIVRTRIVRHFDSAWEMMFENAISRIFLGVHWRFDAAAARDILIPTTTKDVYAVDNNGATVFQNVEDIRYSTKGTREDREGLFPIGGVPLGIEIADEIFNNGLRPTPPELQPMPQETPVQKPIGQQLVQGLWHDEEGQVPVVKEAP
# B3: Purified VHPO (SEQ ID NO: 2): VHPO of Curvularia sp. 4388, reference VHPO; purified from recombinant P. pastoris (protein)
# chain: MGSITPIPLPKIDEPEEYNTNYILFWNHVGLELNRVTHTVGGPLTGPPLSARALGMLHLAIHDAYFSIYPPTDFSTFLSPNAENAAYRLPSPNGANDARQAVAGAALKMLTSLYMKPVETPNPNPGANISDNAYAQLALVIDRSVLKAPGGVDRESASFMFGETVADVFFALLNDPRGASQEGYHPTPGRYKFDDEPTHPVVLIPVDPNNPNGPKKPFRQYHAPFYGKTTKRFATQSEHFLADPPGLRSNADETAEYDDAIRVAIAMGGAQALNSTKRSPWQTAQGLFWAYDGSNLIGTPPRFYNQIVRRIAVTYKKEEDLANSEVNNADFARLFALVDVACTDAGIFSWKEKWEYEFWRPLSGVRDDGRPDHGDPFWLTLGAPATNTNDIPFKPPFPAYPSGHATFGGAVFQMVRRYYNGRVGTWKDDEPDNIAIDMMISEELNGLNRDLRQPYDPTAPIEDQPGIVRTRIVRHFDSAWELMFENAISRIFLGVHWRFDAAAARDILIPTTTKDVYAVDNNGATVFQNVEDIRYTTKGTREDREGLFPIGGVPLGIEIADEIFNNGLKPTPPELQPMPQQTPVQKPVGQQPVQGMWAEEQAPVIKEAP
# B4: Purified VHPO (SEQ ID NO: 7): VHPO of Curvularia protuberata US-1111; purified from recombinant P. pastoris (protein)
# chain: MGSVTPIPLPKIDEPEEYNTNYILFWNYVGLELNRVTHTVGGPLTGPPLSARALGMLHLAVHDAYFSICPPTDFTTFLSPDAENAAYRLPSTNGANDARQAVAGAALKMLTSLYMKPIEQPNPNPSANISDNAYAQLALVLDRSAMEAPGGIDRESASFMFGEAVADVFFALLNDPRGASQEGYHPTPGRYKFDDEPTHPVVLIPVDPNNPNGPKKPFRQYHAPFYGKTTKRFATQSEHFLADPPGLRSNADETAEYDDAIRVAIAMGGAQALNSTKRSPWQTAQGLYWAYDGSNLIGTPPRFYNQIVRRIAVTYKKEEDIANSEVNNADFARLFALVDVACTDAGIFSWKEKWEFEFWRPLSGVRDDGRPDHGDPFWLTLGAPATNTNDIPFKPPFPAYPSGHATFGGAVFQMVRRYYNGRVGTWKDDEPDNIAIDMMISEELNGLNRDLRQPYDPTAPIEDQPGIVRTRIVRHFDSAWELMFENAISRIFLGVHWRFDAAAARDILIPTTTKDVYAVDNNGATVFQNVEDIRYTTKGTREDREGLFPIGGVPLGIEIANEIFENGLKPTPPEIQPMPQETPAQKPVKGMWQEEQVPVVEEAP
# Legend:
# [1] = tested on: Curvularia pseudobrachyspora US-215 (ATCC PTA-127509) VHPO, purified, SEQ ID NO: 5; details: MCD assay; for Ki: pH 5.5, substrate inhibition model; for Km: pH 5.5, 25° C.
# Method: (§1) Kinetic parameters of VHPOs were determined using the monochlorodimedone (MCD) (2-chloro-5,5-dimethyl-1,3-dimedon) assay. The assay was carried out in a 200 μL reaction volume using Greiner UV-Star® 96 well plates. MCD conversion was spectrophotometrically monitored at 290 nm (F=20/mM·cm) using a CLARIOstar® Plus microplate reader (BMG labtech, Germany) at 25° C. […] The buffers were acetate buffer for pH 4-5.5, MES buffer for pH 6 and 6.5, and HEPES buffer for pH 7-8. The MCD mixture was prepared and aliquoted to 96-well plates, followed by enzyme addition (10 μL of appropriate dilution). […] Stock solutions were prepared in advance for KBr (0.25M), Na3VO4 (25 mM), MCD (0.5 mM, adjusted pH to 6), and buffers (1M).
# (§2) The absorbance values were plotted against time. For each curve, the slope of linear regression was determined as the initial velocity (Abs/min) of the enzyme activity.
# (§3) The following enzyme concentrations were used in the MCD assay: • For Curvularia sp.
# [2] = tested on: Curvularia protuberata US-1111 (ATCC PTA-127607) VHPO, purified, SEQ ID NO: 7; details: MCD assay; for Km: pH 5.5, 25° C.
# Method: as §1, §2, §3
# [3] = tested on: Curvularia sp. 4388 (NMI Accession No. V22/011149) VHPO, culture supernatant; details: MCD assay; for Km: pH 5.5, 25° C.
# Method: as §1, §2
# [4] = tested on: Curvularia spicifera US-188 (ATCC PTA-127510) VHPO, purified, SEQ ID NO: 3; details: MCD assay; for Ki: pH 6.5, substrate inhibition model; for Km: pH 6.5, 25° C.
# Method: as §1, §2, §3
# [5] = tested on: Curvularia sp. 4388 (NMI Accession No. V22/011149) VHPO, purified, SEQ ID NO: 2; details: MCD assay; for Km: pH 5.5, 25° C.
# Method: as §1, §2, §3
# methane production = details: among the antimethanogenic compounds found in A. taxiformis; cited from earlier work
# [6] = tested on: methyl-coenzyme M reductase (MCR); details: background; cited from earlier work
# [7] = tested on: VHPO expressed in Curvularia sp. 4388 (SEQ ID NO: 2); assay: Enzyme reaction via VHPO mediated pathway, bromoform by GCMS; type: biochemical; details: VHPO (Curvularia sp. AU-4388 supernatant), KBr, H2O2, vanadate, 24 hours at room temperature
# [8] = MCD assay, pH profile of VHPO activity; type: biochemical; details: for Optimal pH: first value of the cell: pH at which the kinetic parameters were determined; for optimal pH of enzyme activity: typical MCD assay, 25° C., value in brackets in Table 8, footnotes and text
# [9] = read-out: KI (Br-), pH 5.5, substrate inhibition model
# [10] = pH 5.5, final 20-fold dilution of supernatant
# [11] = pH 5.5, final 200-fold dilution
# [12] = read-out: KM (H2O2), H2O2 varied
molecule,measurement,setting,value
"[Br-].[K+] [Br-, bromide]",Vmax (Br-),"[1]; pH 5.5, final 20-fold dilution",0.039 [Abs/min]
same,Ki,[1]; read-out: KI (Br-),9.35 mM
same,Km,"[1]; read-out: KM (Br-), KBr varied",73 µM
same,Vmax (Br-),"[2]; pH 5.5, final 20-fold dilution",0.0083 [Abs/min]
same,Ki,[2]; [9],33.6 mM
same,Km,"[2]; read-out: KM (Br-), KBr varied",38.7 µM
same,Vmax (Br-),[3]; [10],0.964 [Abs/min]
same,Ki,[3]; [9],1.33 mM
same,Km,"[3]; read-out: KM (Br-), KBr varied",155 µM
same,Vmax (Br-),"[4]; pH 6.5, final 20-fold dilution",0.356[Abs/min]
same,Ki,[4]; read-out: KI (Br-),17.5 mM
same,Km,"[4]; read-out: KM (Br-), KBr varied",125 µM
same,Vmax (Br-),[5]; [11],0.395 [Abs/min]
same,Ki,[5]; [9],2.9 mM
same,Km,"[5]; read-out: KM (Br-), KBr varied",68 µM
"BrC(Br)Br [Bromoform, bromoform]",activity at inhibiting methane production,methane production,highest activity
"OO [H2O2, hydrogen peroxide]",Vmax (H2O2),"[1]; pH 5.5, final 20-fold dilution",0.123 [Abs/min]
same,Ki,[1]; read-out: KI (H2O2),31.3 mM
same,Km,[1]; [12],3300 µM
same,Vmax (H2O2),"[2]; pH 5.5, final 20-fold dilution",0.0103 [Abs/min]
same,Km,[2]; [12],611 µM
same,Vmax (H2O2),[3]; [10],0.466 [Abs/min]
same,Km,[3]; [12],297 µM
same,Vmax (H2O2),"[4]; pH 6.5, final 20-fold dilution",0.357 [Abs/min]
same,Ki,[4]; read-out: KI (H2O2),2.76 mM
same,Km,[4]; [12],400 µM
same,Vmax (H2O2),[5]; [11],0.378 [Abs/min]
same,Km,[5]; [12],645 µM
BrC(Br)Br [bromoform],inhibition of methyl-coenzyme M reductase (MCR),[6],competitive inhibitor
ClC(Br)Br [dibromochloromethane],activity at inhibiting methane production,methane production,highest activity
CC1(C)CC(=O)CC(=O)C1 [dimedone],GCMS peak for bromoform,[7],significant peak
B1,Optimal pH,[8],6.5
same,optimal pH of enzyme activity,[8],7
B2,Optimal pH,[8],pH 5.5
same,optimal pH of enzyme activity,[8],5.5
B3,Optimal pH,[8],pH 5.5
same,optimal pH of enzyme activity,[8],5.5
B4,Optimal pH,[8],5.5
same,optimal pH of enzyme activity,[8],5
same,optimal pH of enzyme activity,[8]; listed as SEQ ID NO: 7,5

# From patent US20260232745A1, “INHIBITION OF METHANE PRODUCTION IN RUMINANTS” (Loam Bio Pty Ltd, priority 2023, published 2026)
